In ChEMBL document CHEMBL5729264, “Bicyclic compounds” (2022):

test: Dual-Glo Luciferase Assay: The Dual-Glo Luciferase Reagent was prepared by transferring the contents of one bottle of Dual-Glo Luciferase Buffer to one bottle of Dual-Glo Luciferase Substrate to create the Dual-Glo Luciferase Reagent. Mixing was performed by inversion until the substrate was thoroughly dissolved. After mixing, the reagent was aliquoted into 15 ml tubes. In the afternoon (24 hrs post compound treatment), the DMEM+medium in the 384 well plates were aspirated by Microplate Washer.Measuring firefly luciferase activity: 20 ul Dual-Glo Luciferase Reagent was added to the 384-well plates. The plates were protected from light to prevent interference with the assay. The plates were shaken for 1 min followed centrifuging plates at 1000 rpm for 30 seconds. After waiting at least 10 minutes, the firefly luminescence was measured by Envision.Measuring renilla luciferase activity: 20 ul Stop-Glo Reagent was added to the 384-well plates. The plates were shaken for 1 min and then centrifuged at 1000 rpm for 30 seconds. After waiting at least 10 minutes, the renilla luminescence was measured by Envision.Compound IC50 and maximum inhibition on the firefly luciferase and renilla luciferase activities were reported separately.

| SMILES | IC50 |
| --- | --- |
| CS(=O)(=O)NC(=O)c1ccc2c(Oc3ccc(C(F)(F)F)cc3)cccc2c1 | < 100 nM |
| CC(C)NC(=O)c1ccc2c(Oc3cccc(Cl)c3)cccc2c1 | < 100 nM |
| N#CCNC(=O)c1ccc2c(Oc3ccc(C(F)(F)F)cc3)cccc2c1 | < 100 nM |
| CC(C)NC(=O)c1ccc2c(Oc3ccc(Cl)c(Cl)c3)cccc2c1 | < 100 nM |
| C#C[C@@H](C)NC(=O)c1ccc2c(Oc3ccc(C(F)(F)F)cc3)cccc2c1 | < 100 nM |
| C[C@H](NC(=O)c1ccc2c(Oc3ccc(C(F)(F)F)cc3)cccc2c1)c1c[nH]cn1 | < 100 nM |
| C[C@H](NC(=O)c1ccc2c(Oc3ccc(C(F)(F)F)cc3)cccc2c1)c1cccc(N)n1 | in the range around 550 nM |
| C[C@@H](NC(=O)c1ccc2c(Oc3ccc(C(F)(F)F)cc3)cccc2c1)c1c[nH]cn1 | < 100 nM |
| C#C[C@H](C)NC(=O)c1ccc2c(Oc3ccc(C(F)(F)F)cc3)cccc2c1 | < 100 nM |
| O=C(NC(CO)c1ccccn1)c1ccc2c(Oc3ccc(C(F)(F)F)cc3)cccc2c1 (stereo not given) | < 100 nM |
| C[C@H](CO)NC(=O)c1ccc2c(Oc3ccc(C(F)(F)F)cc3)nccc2c1 | < 100 nM |
| CNCCCNC(=O)c1ccc2c(Oc3ccc(C(F)(F)F)cc3)cccc2c1 | < 100 nM |
| C[C@@H](NC(=O)c1ccc2c(Oc3ccc(C(F)(F)F)cc3)cccc2c1)c1nnn(C)n1 | in the range around 550 nM |
| C[C@H](NC(=O)c1ccc2c(Oc3ccc(C(F)(F)F)cc3)cccc2c1)c1cccc(N(C)C)n1 | in the range around 550 nM |
| C[C@@H](NC(=O)c1ccc2c(Oc3ccc(C(F)(F)F)cc3)cccc2c1)c1cccnc1N | in the range around 2000 nM |
| CS(=O)(=O)NC(=O)c1ccc2c(Oc3ccc(Cl)c(Cl)c3)cccc2c1 | < 100 nM |
| C#CCNC(=O)c1ccc2c(Oc3ccc(C(F)(F)F)cc3)cccc2c1 | < 100 nM |
| COC[C@@H](C)NC(=O)c1ccc2c(Oc3ccc(C(F)(F)F)cc3)cccc2c1 | < 100 nM |
| C[C@H](NC(=O)c1ccc2c(Oc3ccc(C(F)(F)F)cc3)cccc2c1)c1ncc[nH]1 | in the range around 550 nM |
| CC(C)NC(=O)c1ccc2c(Oc3ccc(C(F)(F)F)cc3F)cccc2c1 | < 100 nM |
| COc1cc(Oc2ccc(C(F)(F)F)cc2)c2ncc(C(=O)N[C@H](C)c3ccccn3)cc2c1 | in the range around 550 nM |

| SMILES | IC50 |
| --- | --- |
| C[C@@H](NC(=O)c1ccc2c(Oc3ccc(C(F)(F)F)cc3)cccc2c1)c1cc(N)ccn1 | < 100 nM |
| C[C@H](NC(=O)c1ccc2c(Oc3ccc(C(F)(F)F)cc3)cccc2c1)c1nn[nH]n1 | in the range around 2000 nM |
| C[C@H](NC(=O)c1ccc2c(Oc3ccc(C(F)(F)F)cc3)cccc2c1)c1cnccn1 | in the range around 550 nM |
| CC(NC(=O)c1ccc2c(Oc3ccc(C(F)(F)F)cc3)cccc2c1)c1cc(Br)ccn1 (stereo not given) | < 100 nM |
| O=C(NC1(c2ccccc2)CC1)c1ccc2c(Oc3ccc(C(F)(F)F)cc3)cccc2c1 | < 100 nM |
| COC[C@H](C)NC(=O)c1ccc2c(Oc3ccc(C(F)(F)F)cc3)cccc2c1 | < 100 nM |
| COC[C@@H](C)NC(=O)c1cnc2c(Oc3ccc(C(F)(F)F)cc3)cc(OC)cc2c1 | < 100 nM |
| CC(C)NC(=O)c1cnc2c(Oc3ccc(C(F)(F)F)cc3)cc(F)c(F)c2c1 | < 100 nM |
| CN(C#N)CCCNC(=O)c1ccc2c(Oc3ccc(C(F)(F)F)cc3)cccc2c1 | < 100 nM |
| C[C@@H](NC(=O)c1ccc2c(Oc3ccc(C(F)(F)F)cc3)cccc2c1)c1cnccn1 | < 100 nM |
| COC[C@H](C)NC(=O)c1cnc2c(Oc3ccc(C(F)(F)F)cc3)cc(OC)cc2c1 | < 100 nM |
| C[C@@H](NC(=O)c1ccc2c(Oc3ccc(C(F)(F)F)cc3)cccc2c1)c1ccccn1 | in the range around 550 nM |
| C[C@H](NC(=O)c1cnc2c(Oc3ccc(C(F)(F)F)cc3)cccc2c1)c1ccccn1 | < 100 nM |
| CNS(=O)(=O)c1ccc2c(Oc3ccc(C(F)(F)F)cc3)cccc2c1 | < 100 nM |
| C[C@H](CO)NC(=O)c1ccc2c(Oc3ccc(C(F)(F)F)cc3)cccc2c1 | < 100 nM |
| CC(C)NC(=O)c1ccc2c(Oc3ccc(F)c(F)c3)cccc2c1 | < 100 nM |
| C[C@@H](NC(=O)c1ccc2c(Oc3ccc(C(F)(F)F)cc3)cccc2c1)c1cccc(N)n1 | < 100 nM |
| CC(C)NC(=O)c1ccc2c(Oc3ccc(Cl)cc3)cccc2c1 | < 100 nM |
| O=C(NC(CO)c1ccccn1)c1cnc2c(Oc3ccc(C(F)(F)F)cc3)cccc2c1 (stereo not given) | < 100 nM |
| C[C@H](NC(=O)c1ccc2c(Oc3ccc(C(F)(F)F)cc3)cccc2c1)c1cn(C)cn1 | in the range around 550 nM |
| C[C@H](NC(=O)c1ccc2c(Oc3ccc(C(F)(F)F)cc3)cccc2c1)C(N)=O | < 100 nM |

| SMILES | IC50 |
| --- | --- |
| CC(C)NC(=O)c1ccc2c(Oc3ccc(C(F)(F)F)cc3)cccc2n1 | < 100 nM |
| CC(C)NC(=O)c1ccc2c(Oc3ccc(C(F)(F)F)cc3)cncc2c1 | < 100 nM |
| CC(C)NC(=O)c1ccc2c(Oc3ccc(C(F)(F)F)cc3)ccnc2c1 | in the range around 550 nM |
| CC(C)NC(=O)c1cnc2c(Oc3ccc(C(F)(F)F)cc3)cccc2c1 | < 100 nM |
| CC(C)NC(=O)c1ccc2c(Oc3ccc(C(F)(F)F)cc3)nccc2c1 | < 100 nM |
| CN(C#N)CCNC(=O)c1ccc2c(Oc3ccc(C(F)(F)F)cc3)cccc2c1 | < 100 nM |
| CNS(=O)(=O)c1ccc2c(Oc3ccc(Cl)c(Cl)c3)cccc2c1 | < 100 nM |
| CC(C)NC(=O)c1cc2cccc(Oc3ccc(C(F)(F)F)cc3)c2s1 | < 100 nM |
| C[C@H](NC(=O)c1ccc2c(Oc3ccc(C(F)(F)F)cc3)cccc2c1)c1nnnn1C | in the range around 550 nM |
| N#CCCNC(=O)c1ccc2c(Oc3ccc(C(F)(F)F)cc3)cccc2c1 | < 100 nM |
| C[C@H](NC(=O)c1ccc2c(Oc3ccc(C(F)(F)F)cc3)cccc2c1)c1nnn(C)n1 | < 100 nM |
| C[C@H](NC(=O)c1ccc2c(Oc3ccc(C(F)(F)F)cc3)cccc2c1)c1nccn1C | in the range around 550 nM |
| C[C@H](NC(=O)c1ccc2c(Oc3ccc(C(F)(F)F)cc3)cccc2c1)c1cc(N(C)C)ccn1 | in the range around 550 nM |
| C[C@@H](NC(=O)c1ccc2c(Oc3ccc(C(F)(F)F)cc3)cccc2c1)c1ncc[nH]1 | < 100 nM |
| COC[C@@H](C)NC(=O)c1cnc2c(Oc3ccc(C(F)(F)F)cc3)cccc2c1 | in the range around 550 nM |
| C[C@@H](NC(=O)c1cnc2c(Oc3ccc(C(F)(F)F)cc3)cccc2c1)c1ccccn1 | in the range around 550 nM |
| C[C@@H](NC(=O)c1ccc2c(Oc3ccc(C(F)(F)F)cc3)cccc2c1)c1cccc2cn[nH]c12 | < 100 nM |
| C[C@H](NC(=O)c1ccc2c(Oc3ccc(C(F)(F)F)cc3)cccc2c1)C1CC1 | < 100 nM |
| C[C@@H](NC(=O)c1ccc2c(Oc3ccc(C(F)(F)F)cc3)cccc2c1)c1nccn1C | in the range around 550 nM |
| C[C@H](CO)NC(=O)c1cnc2c(Oc3ccc(C(F)(F)F)cc3)cccc2c1 | < 100 nM |

Continued, values first:

| IC50 | SMILES |
| --- | --- |
| < 100 nM | CC(C)NC(=O)c1ccc2c(Oc3ccc(C(F)(F)F)cc3)cccc2c1 |
| in the range around 550 nM | N#CNC(=O)c1ccc2c(Oc3ccc(C(F)(F)F)cc3)cccc2c1 |
| < 100 nM | C[C@H](NC(=O)c1ccc2c(Oc3ccc(C(F)(F)F)cc3)cccc2c1)c1ccccc1Cl |
| < 100 nM | C[C@H](NC(=O)c1ccc2c(Oc3ccc(C(F)(F)F)cc3)cccc2c1)C1COC1 |
| < 100 nM | C[C@H](CO)NC(=O)c1cc2cccc(Oc3ccc(C(F)(F)F)cc3)c2s1 |
| < 100 nM | C[C@@H](NC(=O)c1ccc2c(Oc3ccc(C(F)(F)F)cc3)cccc2c1)c1cccc(N(C)C)n1 |
| < 100 nM | C[C@@H](NC(=O)c1ccc2c(Oc3ccc(C(F)(F)F)cc3)cccc2c1)c1cn(C)cn1 |
| < 100 nM | CC#C[C@@H](C)NC(=O)c1ccc2c(Oc3ccc(C(F)(F)F)cc3)cccc2c1 |
| < 100 nM | C[C@H](NC(=O)c1ccc2c(Oc3ccc(C(F)(F)F)cc3)cccc2c1)C1CCC1 |
| < 100 nM | C[C@H](NC(=O)c1ccc2c(Oc3ccc(C(F)(F)F)cc3)cccc2c1)c1ccccn1 |
| < 100 nM | CS(=O)(=O)NC(=O)c1ccc2c(Oc3ccc(F)c(F)c3)cccc2c1 |
| < 100 nM | C[C@@H](NC(=O)c1ccc2c(Oc3ccc(C(F)(F)F)cc3)cccc2c1)C(N)=O |
| < 100 nM | C[C@@H](NC(=O)c1ccc2c(Oc3ccc(C(F)(F)F)cc3)cccc2c1)C1COC1 |
| in the range around 2000 nM | C[C@@H](NC(=O)c1ccc2c(Oc3ccc(C(F)(F)F)cc3)cccc2c1)c1cc(N(C)C)ccn1 |
| < 100 nM | C[C@@H](NC(=O)c1ccc2c(Oc3ccc(C(F)(F)F)cc3)cccc2c1)C1CCC1 |
| in the range around 550 nM | CNCCNC(=O)c1ccc2c(Oc3ccc(C(F)(F)F)cc3)cccc2c1 |
| < 100 nM | C#CCCNC(=O)c1ccc2c(Oc3ccc(C(F)(F)F)cc3)cccc2c1 |
| in the range around 550 nM | C[C@H](NC(=O)c1ccc2c(Oc3ccc(C(F)(F)F)cc3)cccc2c1)c1cc(N)ccn1 |
| < 100 nM | COC[C@H](C)NC(=O)c1cnc2c(Oc3ccc(C(F)(F)F)cc3)cccc2c1 |
| < 100 nM | O=C(NC(CO)Cc1ccccn1)c1ccc2c(Oc3ccc(C(F)(F)F)cc3)cccc2c1 (stereo not given) |
| < 100 nM | O=C(NC1(c2ccccn2)CC1)c1ccc2c(Oc3ccc(C(F)(F)F)cc3)cccc2c1 |
| < 100 nM | O=C(NC1(c2ccccc2)COC1)c1ccc2c(Oc3ccc(C(F)(F)F)cc3)cccc2c1 |
| < 100 nM | C[C@@H](NC(=O)c1ccc2c(Oc3ccc(C(F)(F)F)cc3)cccc2c1)C1CC1 |
| < 100 nM | COc1cc(Oc2ccc(C(F)(F)F)cc2)c2ncc(C(=O)N[C@@H](C)c3ccccn3)cc2c1 |
| < 100 nM | CC#C[C@H](C)NC(=O)c1ccc2c(Oc3ccc(C(F)(F)F)cc3)cccc2c1 |
| in the range around 550 nM | C[C@@H](NC(=O)c1ccc2c(Oc3ccc(C(F)(F)F)cc3)cccc2c1)c1nnnn1C |
| < 100 nM | C[C@H](NC(=O)c1ccc2c(Oc3ccc(C(F)(F)F)cc3)cccc2c1)c1cccnc1N |
| < 100 nM | CC(C)NC(=O)c1ccc2c(Oc3ccc(C(F)(F)F)cc3Cl)cccc2c1 |
